Laboratory results as given in US12006314B2, “Anti-cancer nuclear hormone receptor-targeting compounds” (Nuvation Bio Inc., priority 2021, dated 2024).

Assays:
[1] = target: T1, ER Alpha-ligand binding domain (LBD) (Homo sapiens, UniProt P03372); test: ER binding assay (LanthaScreen TR-FRET ER Alpha Competitive Binding); conditions: Fluormone ES2 Green tracer 3 nM, 2 h
T1 sequence (P03372 311-547 limits assumed): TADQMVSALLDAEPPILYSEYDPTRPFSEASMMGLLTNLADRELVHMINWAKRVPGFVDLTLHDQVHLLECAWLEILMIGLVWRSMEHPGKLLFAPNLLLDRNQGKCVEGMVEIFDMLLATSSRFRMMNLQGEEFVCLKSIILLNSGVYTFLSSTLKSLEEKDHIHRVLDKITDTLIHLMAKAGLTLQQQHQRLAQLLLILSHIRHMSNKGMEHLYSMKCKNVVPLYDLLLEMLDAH
Experimental: ER binding assay: ERα binding was assessed using the LanthaScreen® TR-FRET ER Alpha Competitive Binding kit from ThermoFisherScientific. In this assay, a terbium-labeled anti-GST antibody was used to indirectly label GST-tagged ER Alpha-ligand binding domain (LBD) by binding to its GST tag. Competitive binding to the ER Alpha-LBD (GST) was detected by a test compound's ability to displace a fluorescent ligand (Fluormone™ ES2 Green tracer) from the ER Alpha-LBD (GST), which results in a loss of FRET signal between the Tb-anti-GST antibody and the tracer. To assess ER binding, test compound (top dose 10 μM, 4 fold serial dilution, 8 point dose response) and controls (e.g. estradiol) were transferred to the assay plate. The Fluormone™ ES2 Green tracer (3 nM final concentration with assay buffer) was added to the assay plate. This was followed by addition of a mixture of the ER Alpha-LBD (GST) and terbium anti-GST antibody. After a 2 h incubation period at room temperature, the plate was read on the Envision plate reader and the TR-FRET ratio of 520:495 emissions were calculated and used to determine the IC50 from a dose response curve of the compound.

MCF7 cells = test: Cell viability assay MCF7; format: cell-based; conditions: Homo sapiens, MCF7, 144 h; 6 days, CellTiterGlo
Experimental: (§1) Cell viability assay: LNCap, 22Rv1, MCF7, MDAMB361, T47D, and IEC6 cells were seeded at a density of 500-2000 cells/well in 96 well plates, and a ‘T0’ (timepoint 0) was included along with the assay plate. The plates were then incubated at 37° C., 5% CO2 in a cell culture incubator overnight. On the next day, the ‘T0’ plate was assayed using CellTiterGlo (Promega, Inc) according to the manufacturer's instructions. The appropriate compounds were diluted in DMSO and added to the assay plate (final DMSO concentration of 0.1-0.2%) on the next day. The assay plates were incubated for 6 days at 37° C., 5% CO2. After the incubation period, the plates were assayed using CellTiterGlo (Promega, Inc) according to the manufacturer's instructions and luminescence was read on the EnVision plate reader. Inhibition of the tested compounds was determined by the following formula: Inhibition rate (%)=(1−(RLU compound−RLU day0)/(RLU control−RLU day0))*100%. GraphPadPrism was used to analyze the data and determine GI50/IC50 values.

[2] = target: T2, ER (SK-BR-3 cells transfected with ERE plasmid and ER) (Homo sapiens, UniProt P03372); test: ER antagonism assay; format: cell-based; conditions: 100 nM β-Estradiol, 24 h, Dual-glo luciferase
T2 construct: expressed in transfected cells; host or cells: SK-BR-3 (transient, lipofectamine 3000)
T2 sequence (P03372 1-595): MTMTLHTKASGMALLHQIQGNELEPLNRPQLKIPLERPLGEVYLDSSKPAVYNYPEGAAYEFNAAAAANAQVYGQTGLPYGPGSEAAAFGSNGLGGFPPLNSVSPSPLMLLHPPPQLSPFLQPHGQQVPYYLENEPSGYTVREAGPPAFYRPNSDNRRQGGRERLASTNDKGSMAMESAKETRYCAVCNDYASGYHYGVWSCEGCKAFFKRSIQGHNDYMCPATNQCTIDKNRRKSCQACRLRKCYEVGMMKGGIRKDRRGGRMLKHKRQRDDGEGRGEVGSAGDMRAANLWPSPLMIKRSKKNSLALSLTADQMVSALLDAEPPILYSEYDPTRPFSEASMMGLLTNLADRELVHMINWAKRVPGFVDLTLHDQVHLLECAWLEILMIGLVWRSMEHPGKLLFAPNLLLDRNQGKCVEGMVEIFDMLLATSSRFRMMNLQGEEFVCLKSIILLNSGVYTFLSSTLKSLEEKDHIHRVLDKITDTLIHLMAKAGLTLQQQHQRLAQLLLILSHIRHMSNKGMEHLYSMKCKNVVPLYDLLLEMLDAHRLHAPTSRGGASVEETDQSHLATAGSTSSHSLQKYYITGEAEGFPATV
Experimental: ER antagonism assay: To evaluate ER antagonist activity, SK-BR-3 cells were seeded at a density of 30000 cells/well in the assay plate. The assay plate was then incubated at 37° C., 5% CO2 for 24 h. A mixture of ERE plasmid and ER in opti-MEM media was incubated with lipofectamine 3000 in Opti-MEM media and incubated at room temperature for 15 minutes. 10 μL of this transfection mix was added to each well of the assay plate and the assay plate was incubated at 37° C., 5% CO2 for 24 h. 100 nM β-Estradiol in 10 μL medium or 10 μL medium (control wells) was added to corresponding wells of assay plate and incubated at 37° C. 5% CO2 for 24 h. After the incubation period, 50 μL of Dual-glo luciferase reagent was added to the assay plate and mixed at room temperature for 20 mins on an orbital shaker, before reading out on the EnVision plate reader. 50 μL of Stop & Glo reagent was added to assay plate, mixed at room temperature for 20 minutes, and read on the Envision plate reader.

IEC6 cells = test: Cell viability assay IEC6; format: cell-based; conditions: Rattus norvegicus, IEC-6, 144 h; 6 days, CellTiterGlo
MDAMB361 cells = test: Cell viability assay MDAMB361; format: cell-based; conditions: Homo sapiens, MDA-MB-361, 144 h; 6 days, CellTiterGlo
Experimental: as §1

| Compound | IC50 [1] [µM] | GI50 (MCF7 cells) [µM] | IC50 [2] [µM] | GI50 (MDAMB361 cells) [µM] | IC50 (IEC6 cells) [µM] |
| --- | --- | --- | --- | --- | --- |
| CCc1cc2ncc(CN3CCN(C(=O)CCCCCOc4cc(F)c([C@@H]5c6[nH]c7ccccc7c6C[C@@H](C)N5CC(C)(C)F)c(F)c4)CC3)cc2[nH]c1=O [Compound 61, 7-((4-(6-(3,5-Difluoro-4-((1R,3R)-2-(2-fluoro-2-methylpropyl)-3-methyl-2,3,4,9-tetrahydro-1H-pyrido[3,4-b]indol-1-yl)phenoxy)hexanoyl)piperazin-1-yl)methyl)-3-ethyl-1,5-naphthyridin-2(1H)-one] | ≤ 0.1 | ≤ 0.5 | ≤ 0.1 | > 30 | > 30 |
| CCc1cc2ncc(CN3CCN(CCOc4cc(F)c([C@@H]5c6[nH]c7ccccc7c6C[C@@H](C)N5CC(C)(C)F)c(F)c4)CC3)cc2[nH]c1=O [Compound 71, 7-((4-(2-(3,5-Difluoro-4-((1R,3R)-2-(2-fluoro-2-methylpropyl)-3-methyl-2,3,4,9-tetrahydro-1H-pyrido[3,4-b]indol-1-yl)phenoxy)ethyl)piperazin-1-yl)methyl)-3-ethyl-1,5-naphthyridin-2(1H)-one] |  | ≤ 0.5 | ≤ 0.1 | 0.5 to 5 | 0.5 to 5 |
| CCc1cc2ncc(CN3CCN(CCCCCCOc4cc(F)c([C@@H]5c6[nH]c7ccccc7c6C[C@@H](C)N5CC(C)(C)F)c(F)c4)CC3)cc2[nH]c1=O [Compound 72, 7-((4-(6-(3,5-Difluoro-4-((1R,3R)-2-(2-fluoro-2-methylpropyl)-3-methyl-2,3,4,9-tetrahydro-1H-1-pyrido[3,4-b]indol-1-yl)phenoxy)hexyl)piperazin-1-yl)methyl)-3-ethyl-1,5-naphthyridin-2(1H)-one] |  | ≤ 0.5 | ≤ 0.1 | ≤ 0.5 | 5 to 30 |

Further lines, with some results ahead:

| IC50 [1] [µM] | GI50 (MCF7 cells) [µM] | IC50 [2] [µM] | GI50 (MDAMB361 cells) [µM] | Compound | IC50 (IEC6 cells) [µM] |
| --- | --- | --- | --- | --- | --- |
|  | ≤ 0.5 | ≤ 0.1 | ≤ 0.5 | CCc1cc2ncc(CN3CCN(C(=O)COc4cc(F)c([C@@H]5c6[nH]c7ccccc7c6C[C@@H](C)N5CC(C)(C)F)c(F)c4)CC3)cc2[nH]c1=O [Compound 73, 7-((4-(2-(3,5-Difluoro-4-((1R,3R)-2-(2-fluoro-2-methylpropyl)-3-methyl-2,3,4,9-tetrahydro-1H-pyrido[3,4-b]indol-1-yl)phenoxy)acetyl)piperazin-1-yl)methyl)-3-ethyl-1,5-naphthyridin-2(1H)-one] | > 30 |
|  | ≤ 0.5 | ≤ 0.1 | ≤ 0.5 | CCc1cc2ncc(CN3CCC(N(C)C(=O)COc4cc(F)c([C@@H]5c6[nH]c7ccccc7c6C[C@@H](C)N5CC(C)(C)F)c(F)c4)CC3)cc2[nH]c1=O [Compound 74, 2-(3,5-Difluoro-4-((1R,3R)-2-(2-fluoro-2-methylpropyl)-3-methyl-2,3,4,9-tetrahydro-1H-pyrido[3,4-b]indol-1-yl)phenoxy)-N-(1-((7-ethyl-6-oxo-5,6-dihydro-1,5-naphthyridin-3-yl)methyl)piperidin-4-yl)-N-methylacetamide] | 0.5 to 5 |
